Results on three compounds are retold here after paper PMC9161374 (Science Translational Medicine, 2022).

For series [1], the system named is SARS-CoV-2 (Delta, B.1.617.2). The series can be described thus: microbe, parasite or virus in culture. It is filed as cell-based.
The test system of series [2] is SARS-CoV-2 Delta variant. It is filed as in vivo, K18-hACE2 mice. To be noted: for % Initial weight / nucleocapsid gRNA copies/ μL / Log10 (FFU/g): individual animals; for % Initial weight: Fig.6B; for nucleocapsid gRNA copies/ μL: Fig.6C; for Log10 (FFU/g): Fig.6D.
Series [3] has as its system SARS-CoV-2 Delta variant. It is filed as in vivo, K18-hACE2 mice. The settings on record: for lung virus titers in plaque assays: ATV006 250 or 100 mg/kg, EIDD-2801 500 mg/kg.
Series [4] deals with SARS-CoV-2 (Omicron, B.1.1.529).

Where “and” joins values, the source holds several entries; their conditions need not be identical. Equal values may be shown once. Read-outs that look alike come from different tables or passages of the source. Bounds are passed on as bounds.

Regarding `CC(C)C(=O)OC[C@H]1O[C@@](C#N)(c2ccc3c(N)ncnn23)[C@H](O)[C@@H]1O` [ATV006], the figures for the fold potency improvement in series [1] and in series [4] were more than 4 fold and more than 12 fold, respectively. In addition, the “% Initial weight” value in series [2] (10mg/kg, 0d) is 100%; in series [2] (10mg/kg, 1d), 101.648% and 100.759% and 96.0784% and 96.7539% and 101.529%; in series [2] (10mg/kg, 2d) it was 101.923% and 99.2405% and 97.0588% and 94.7644% and 103.824%; in series [2] (10mg/kg, 3d), 98.9011% and 98.7342% and 96.5686% and 95.0262% and 104.706%; in series [2] (30mg/kg, 0d), 100%; in series [2] (30mg/kg, 1d) it was 102.538% and 104.147% and 99.7354% and 98.4143% and 100.606%. Also, the “% Initial weight” value in series [2] (30mg/kg, 2d) was 101.015% and 104.987% and 97.619% and 97.6982% and 97.3539%; in series [2] (30mg/kg, 3d) it was 101.777% and 105.249% and 100% and 99.7442% and 101.433%; in series [2] (80mg/kg, 0d) it was 100%; in series [2] (80mg/kg, 1d), 98.0198% and 99.4949% and 101.272% and 98.5163% and 99.5238%; in series [2] (80mg/kg, 2d) it was 101.98% and 95.9596% and 100% and 98.635% and 104.762%; in series [2] (80mg/kg, 3d) it was 103.96% and 97.3232% and 99.6438% and 102.077% and 105.357%. Also, the “% Initial weight” value is 100% in series [2] (150mg/kg, 0d); 98.25% and 98.7147% and 97.1922% and 101.765% and 97.8241% in series [2] (150mg/kg, 1d); 98.35% and 100% and 98.2721% and 105.229% and 95.8333% in series [2] (150mg/kg, 2d); 97.75% and 97.4293% and 97.1922% and 107.516% and 97.4537% in series [2] (150mg/kg, 3d). For the same compound, the “nucleocapsid gRNA copies/ μL” value in series [2] (10mg/kg) was 146414 copies/ μL and 275440 copies/ μL and 232362 copies/ μL and 312910 copies/ μL and 80285.6 copies/ μL; in series [2] (30mg/kg), 13248.7 copies/ μL and 53687.7 copies/ μL and 90173.6 copies/ μL and 4602.2 copies/ μL and 1089.53 copies/ μL; in series [2] (80mg/kg) it was 1775.52 copies/ μL and 4114.3 copies/ μL and 2639.93 copies/ μL and 10494.5 copies/ μL and 13845.3 copies/ μL; in series [2] (150mg/kg) it was 3137.57 copies/ μL and 1055.82 copies/ μL and 1750.74 copies/ μL and 2116.43 copies/ μL and 8855.34 copies/ μL. In addition, the “Log10 (FFU/g)” value in series [2] (30mg/kg) was 285 FFU/g and 11142.9 FFU/g and 1428.57 FFU/g; in series [2] (80mg/kg) it was 285 FFU/g; in series [2] (150mg/kg), 285 FFU/g. In addition, the “Viral titer in lungs” value in series [2] (mouse, in vivo) was “reduced below the detection limit”. The lung histopathology result in series [2] (mouse, in vivo) is “alleviated the symptoms in the lungs”. For the same compound, the “viral load in the lungs” value in series [2] (mouse, in vivo) is listed as “reduced viral load in the lungs”. The “lung virus titers in plaque assays” value in series [3] ([…]) is on record as “below the limit of detection”. Moreover, the “Ccl2 transcript, Vehicle/ATV006 fold change + standard error of the mean” value in series [3] (mouse, in vivo) was 24.69±25.14. Besides, the “Cxcl10 transcript, Vehicle/ATV006 fold change + standard error of the mean” value in series [3] (mouse, in vivo) was found to be 43.19±20.74. In addition, the “Ifnb transcript, Vehicle/ATV006 fold change + standard error of the mean” value in series [3] (mouse, in vivo) turned out to be 5.85±4.59. Besides, the “Ifng transcript, Vehicle/ATV006 fold change + standard error of the mean” value in series [3] (mouse, in vivo) is on record as 25.56±17.77. In series [3] (mouse, in vivo), the “Il1β transcript, Vehicle/ATV006 fold change + standard error of the mean” value amounted to 0.66±0.01. Moreover, in series [3] (mouse, in vivo), the “Il6 transcript, Vehicle/ATV006 fold change + standard error of the mean” value is given as 3.14±2.37. Further, in series [3] (mouse, in vivo), the “lung pathology (histopathology)” value is listed as “reduced evidence of lung pathology”. Besides, the “lung viral RNA compared to the control” value in series [3] (mouse, in vivo) is listed as “significantly reducing viral RNA”. Also, in series [3] (mouse, in vivo), the “spike (S) protein of SARS-CoV-2 in lungs, immunohistochemistry” value is recorded as “hardly detectable”. Also, the survival result in series [3] (prophylactic dosing, orally once daily, […]) is on record as “prevent the death”. In addition, the “therapeutic index (CC50/EC50)” value in series [4] is listed as 1207.55.
Consider `CC(C)C(=O)OC[C@H]1O[C@@H](n2ccc(NO)nc2=O)[C@H](O)[C@@H]1O` [EIDD-2801, molnupiravir, reference compound], for which the “lung virus titers in plaque assays” value in series [3] ([…]) is “below the limit of detection”.
As for `N#C[C@@]1(c2ccc3c(N)ncnn23)O[C@H](CO)[C@@H](O)[C@H]1O` [GS-441524, reference compound], in series [2] (80mg/kg), the “nucleocapsid gRNA copies/ μL” value was 3072139 copies/ μL and 3630875 copies/ μL and 3484205 copies/ μL and 3410466 copies/ μL and 4171196 copies/ μL; the “Log10 (FFU/g)” value is 488571 FFU/g and 702857 FFU/g and 351429 FFU/g and 720000 FFU/g and 531429 FFU/g. Also, in series [2] (150mg/kg), the “nucleocapsid gRNA copies/ μL” value was 3129847 copies/ μL and 270812 copies/ μL and 4369083 copies/ μL and 2646326 copies/ μL and 9650757 copies/ μL; the “Log10 (FFU/g)” value was 342857 FFU/g and 368571 FFU/g and 531429 FFU/g and 360000 FFU/g and 420000 FFU/g. Further, in series [2] (mouse, in vivo), the “Viral titer in lungs” value is given as “did not inhibit virus replication”; the lung histopathology entry was “multiple sites of injury and inflammatory cell infiltration”.
